Source: ChEMBL document CHEMBL4411302, “Aryl H-phosphonates. 19. New anti-HIV pronucleotide phosphoramidate diesters containing amino- and hydroxypyridine auxiliaries” (Eur J Med Chem, 2019)

Legend:
[1] = Half life of the compound in RPMI media at 37 degC; assay type: physicochemical; settings: for half-life: RPMI media
[2] = system: Human immunodeficiency virus 1; assay: Antiviral activity against HIV1 infected in human CEM-T4 cells assessed as protection against virus-induced cytopathogenicity by measuring reduction in p24 level preincubated with cells for 24 hrs followed by viral infection and measured after 8 days by MTT assay; assay type: functional, organism-based
[3] = Selectivity index, ratio of CC50 for human CEM-T4 cells to EC50 for HIV1 infected in human CEM-T4 cells; assay type: toxicity, cell-based; settings: read-out: Ratio CC50/EC50
[4] = Cytotoxicity against human CEM-T4 cells assessed as reduction in cell viability after 7 days by MTT assay; assay type: cell-based; settings: for CC50 at 168 h: CEM-T4 cells; for CC50: 168 h
[5] = Prodrug activation in RPMI media assessed as hydrolysis by measuring P-O bond cleavage measured after 24 days; settings: 576 h
[6] = Stability of the compound in RPMI media up to 7 days; assay type: physicochemical; settings: 168 h
[7] = Prodrug activation in RPMI media assessed as hydrolysis by measuring P-O bond cleavage
[8] = Human immunodeficiency virus 1, CEM-T4, read-out: EC50

Row | Structure (SMILES) | half-life [1] [h] | EC50 [2, 8] [µM] | selectivity ratio [3] | CC50 at 168 h [4] [µM] | Drug metabolism [5] | Stability [6] | t1/2 [1] | EC50 [2] | Drug metabolism [7] | CC50 [4]
1 | O=c1ccn([C@H]2CC[C@@H](COP(=O)(Nc3ccccc3)Oc3cccnc3)O2)c(=O)[nH]1 (stereo partly specified) | 120 | 7.3 | 31 | 225 | – | – | – | – | – | –
2 | Cc1cn([C@H]2C[C@H](N=[N+]=[N-])[C@@H](COP(=O)(Nc3ccccc3)Oc3ccccn3)O2)c(=O)[nH]c1=O (stereo partly specified) | 45 | < 0.012 | > 1830 | > 22 | – | – | – | – | – | –
3 | Cc1cn([C@H]2C[C@H](N=[N+]=[N-])[C@@H](COP(=O)(Nc3ccccc3)Oc3ccccc3)O2)c(=O)[nH]c1=O (stereo partly specified) | – | 0.075 | > 890 | > 66.8 | Metabolite_Detected | Stable | – | – | – | –
4 | Cc1cn([C@H]2C[C@H](N=[N+]=[N-])[C@@H](COP(=O)(Nc3ccccc3)Oc3ccncc3)O2)c(=O)[nH]c1=O (stereo partly specified) | – | – | – | – | – | – | Nd(Unstable) | Nd(Unstable) | Nd(Unstable) | Nd(Unstable)
5 | Cc1cn([C@H]2C[C@H](N=[N+]=[N-])[C@@H](COP(=O)(Nc3ccncc3)Oc3ccncc3)O2)c(=O)[nH]c1=O (stereo partly specified) | – | – | – | – | – | – | Nd(Unstable) | Nd(Unstable) | Nd(Unstable) | Nd(Unstable)
6 | Cc1cn([C@H]2C[C@H](N=[N+]=[N-])[C@@H](COP(=O)(Nc3ccncc3)Oc3cccnc3)O2)c(=O)[nH]c1=O (stereo partly specified) | 105 | 0.2 | > 250 | > 50 | – | – | – | – | – | –
7 | O=c1ccn([C@H]2CC[C@@H](COP(=O)(Nc3cccnc3)Oc3cccnc3)O2)c(=O)[nH]1 (stereo partly specified) | 20 | 0.55 | > 364 | > 200 | – | – | – | – | – | –
8 | Cc1cn([C@H]2C[C@H](N=[N+]=[N-])[C@@H](COP(=O)(Nc3ccncc3)Oc3ccccc3)O2)c(=O)[nH]c1=O (stereo partly specified) | 192 | 0.05 | > 8000 | > 400 | – | – | – | – | – | –
9 | Cc1cn([C@H]2C[C@H](N=[N+]=[N-])[C@@H](COP(=O)(Nc3ccncc3)Oc3ccccn3)O2)c(=O)[nH]c1=O (stereo partly specified) | 120 | 0.16 | > 250 | > 50 | – | – | – | – | – | –
10 | Cc1cn([C@H]2C[C@H](N=[N+]=[N-])[C@@H](COP(=O)(Nc3cccnc3)Oc3cccnc3)O2)c(=O)[nH]c1=O (stereo partly specified) | 27 | < 0.02 | > 10000 | > 200 | – | – | – | – | – | –
11 | Cc1cn([C@H]2C[C@H](N=[N+]=[N-])[C@@H](COP(=O)(Nc3cccnc3)Oc3ccccc3)O2)c(=O)[nH]c1=O (stereo partly specified) | 168 | 0.035 | > 11400 | > 400 | – | – | – | – | – | –
12 | Cc1cn([C@H]2C[C@H](N=[N+]=[N-])[C@@H](COP(=O)(Nc3cccnc3)Oc3ccccn3)O2)c(=O)[nH]c1=O (stereo partly specified) | 33 | 0.06 | > 3300 | > 200 | – | – | – | – | – | –
13 | Cc1cn([C@H]2C[C@H](N=[N+]=[N-])[C@@H](COP(=O)(Nc3cccnc3)Oc3ccncc3)O2)c(=O)[nH]c1=O (stereo partly specified) | – | – | – | – | – | – | Nd(Unstable) | Nd(Unstable) | Nd(Unstable) | Nd(Unstable)
14 | Cc1cn([C@H]2C[C@H](N=[N+]=[N-])[C@@H](COP(=O)(Nc3ccccc3)Oc3cccnc3)O2)c(=O)[nH]c1=O (stereo partly specified) | 82 | < 0.012 | > 30000 | 360 | – | – | – | – | – | –
15 | O=c1ccn([C@H]2CC[C@@H](COP(=O)(Nc3cccnc3)Oc3ccccc3)O2)c(=O)[nH]1 (stereo partly specified) | 168 | > 30 | < 7.5 | 225 | – | – | – | – | – | –
